pIC50: −log10 of the molar value. *1 amine or outer side, *2 acyl side, *3 side chain or, on linkers, in order; H or OH if unused. Where a SMILES comes first, the peptide text is derived from it. Bridges are numbered along the chain shown (N, C = ends). [ ]: non-standard residue; d: D form. The star is where a group is joined. Pro(trans-4-NH2) = O=C([C@@H]1C[C@@H](N[*:3])CN1[*:1])[*:2]; DOTA = O=C(O)CN1CCN(CC(=O)O)CCN(CC(=O)*)CCN(CC(=O)O)CC1; Phe(4-CONH2) = NC(=O)c1ccc(C[C@H](N)C(=O)O)cc1; Pro(cis-4-F) = O=C(O)[C@@H]1C[C@H](F)CN1; Hyp = O=C(O)[C@@H]1C[C@@H](O)CN1; 3Pal = N[C@@H](Cc1cccnc1)C(=O)O; Pentanoyl(4-Me) = CC(C)CCC(=O)*; Cit = NC(=O)NCCC[C@H](N)C(=O)O; Butoxycarbonyl = CCCCOC(=O)*; Suc = O=C(CCC(=O)[*:2])[*:1]; Orn = NCCC[C@H](N)C(=O)O; Nva = CCC[C@H](N)C(=O)O; Pentanoyl = CCCCC(=O)*; AEEA = NCCOCCOCC(=O)O
Experiments:
[1] = biological target: T1, uPAR-expressing HEC-265 human endometrial adenocarcinoma cells (Homo sapiens, UniProt Q03405); experiment: Competitive FACS binding assay; details: pIC50 category of FACS binding
T1 construct: Cell surface uPAR-expressing HEC-265 human endometrial adenocarcinoma cells; host or cells: HEC-265
T1 sequence (Q03405 23-335): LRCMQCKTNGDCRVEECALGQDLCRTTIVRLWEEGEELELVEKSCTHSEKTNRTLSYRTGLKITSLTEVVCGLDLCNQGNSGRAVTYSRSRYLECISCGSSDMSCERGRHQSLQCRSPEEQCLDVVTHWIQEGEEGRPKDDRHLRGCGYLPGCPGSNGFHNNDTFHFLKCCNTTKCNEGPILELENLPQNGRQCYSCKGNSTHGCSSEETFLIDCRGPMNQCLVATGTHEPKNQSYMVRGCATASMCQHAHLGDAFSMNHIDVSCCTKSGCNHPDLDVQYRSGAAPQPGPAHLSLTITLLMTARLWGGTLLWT
In short: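 HEC-265 cells incubated 1 h at 4 °C with 10 nM biotinylated uPAR peptide tracer plus increasing test compound, then stained with APC-streptavidin on ice. Median APC fluorescence by flow cytometry; 4PL fit gives pIC50.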

[2] = biological target: T2, Recombinant soluble human NEP (Homo sapiens, UniProt P08473); experiment: Proteolytic stability assay against NEP; type: in vitro ADME; details: recombinant soluble human NEP, human NEP 100 ng/mL, compound 10 µM, 37°C, LC-MS quantification, read-out: % intact compound remaining after 24h incubation
T2 construct: Recombinant soluble human NEP; purchased BioTechne, Wiesbaden, Germany
T2 sequence (P08473 52-750 limits assumed): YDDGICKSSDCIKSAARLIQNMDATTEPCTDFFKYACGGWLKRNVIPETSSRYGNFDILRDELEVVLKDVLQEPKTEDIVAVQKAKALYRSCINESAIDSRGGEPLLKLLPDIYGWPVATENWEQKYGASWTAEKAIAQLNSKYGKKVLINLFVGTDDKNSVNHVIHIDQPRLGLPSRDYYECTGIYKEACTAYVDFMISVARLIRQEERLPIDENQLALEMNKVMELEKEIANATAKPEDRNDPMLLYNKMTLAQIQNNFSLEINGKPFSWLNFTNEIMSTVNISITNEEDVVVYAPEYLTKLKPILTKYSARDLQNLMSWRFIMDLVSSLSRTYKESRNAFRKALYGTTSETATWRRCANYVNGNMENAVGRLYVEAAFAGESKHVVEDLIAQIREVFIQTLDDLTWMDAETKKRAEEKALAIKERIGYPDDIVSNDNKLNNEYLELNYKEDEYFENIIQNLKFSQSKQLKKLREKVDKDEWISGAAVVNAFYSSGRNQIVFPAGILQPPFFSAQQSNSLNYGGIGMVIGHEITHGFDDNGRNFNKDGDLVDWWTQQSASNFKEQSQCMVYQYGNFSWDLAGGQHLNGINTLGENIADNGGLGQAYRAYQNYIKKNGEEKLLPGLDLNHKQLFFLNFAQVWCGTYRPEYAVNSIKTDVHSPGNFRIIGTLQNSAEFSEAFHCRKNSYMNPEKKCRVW
Procedure: To assess the stability of compounds against NEP, the compounds were subjected to an in vitro assay based on the protocol described by Edelson et al. (Edelson, Makhlina et al. 2013).
Recombinant soluble human NEP (BioTechne, Wiesbaden, Germany) at a concentration of 100 ng/mL was mixed with the compound (10 µM) and a stable internal standard (10 µM) and incubated at 37°C. After several time points, samples were taken and analyzed with LC-MS.
The determination of the analyte in the clean sample solutions was performed on an Agilent 1290 UHPLC system coupled to an Agilent 6530 Q-TOF mass spectrometer. The chromatographic separation was carried out on a Phenomenex BioZen XB-C18 HPLC column (50 × 2 mm, 1.7 µm particle size) with gradient elution using a mixture of 0.1% formic acid in water as eluent A and acetonitrile as eluent B (2% B to 41% in 7 min, 800 µl/min, 40°C). Mass spectrometric detection was performed in positive ion ESI mode by scanning the mass range from m/z 50 to 3000 with a sampling rate of 2 / sec.
From the mass spectrometric raw data the ion currents for the double or triple charged monoisotopic signal was extracted for both, the compound and the internal standard.
Quantitation was performed by external matrix calibration with internal standard using the integrated analyte signals.
The activity of NEP was examined using a commercially available chromogenic substrate of NEP.
The result is stated as "% intact compound remaining after 24 h incubation" and means that from the amount of material at the start of the experiment the stated percentage is detected as unchanged material at the end of the experiment by LC-MS quantification. Since all compounds are more than 50% intact after 24 h they are considered as stable enough for diagnostic and therapeutic applications. Table 14: Results of the NEP stability assay

pIC50 [1] | remaining at 24 h, 10 µM [2] [%] | SMILES
≥ 8.00 | 94 | CC[C@H](C)[C@@H]1NC(=O)[C@@H](C)NC(=O)[C@@H]2CCCN2C(=O)[C@H](Cc2ccccc2)NC(=O)[C@H](Cc2ccc(O)cc2)NC(=O)[C@H](CCCCNC(=O)CN2CCN(CC(=O)O)CCN(CC(=O)O)CCN(CC(=O)O)CC2)NC(=O)[C@H](CCCNC(N)=O)NC(=O)[C@@H](NC(=O)[C@H](CC(C)C)NC(=O)[C@H](CC(=O)O)NC(C)=O)CSSC[C@@H](C(N)=O)NC(=O)[C@H](CC(C)C)NC1=O [UPAR-189, Ac-Asp-Leu-[Cys-Cit-Lys(DOTA)-Tyr-Phe-Pro-ala-Ile-Leu-Cys]-NH2] (Ac-DLC[Cit]K(DOTA)YFP[dA]ILC-NH2; disulfide 3-12)
≥ 8.00 | 84 | CC[C@H](C)[C@@H]1NC(=O)[C@@H]2CCCN2C(=O)[C@@H]2CCCN2C(=O)[C@H](Cc2ccccc2)NC(=O)[C@H](Cc2ccc(O)cc2)NC(=O)[C@H](CCC(N)=O)NC(=O)[C@H](CCCNC(N)=O)NC(=O)[C@@H](NC(=O)[C@H](CC(C)C)NC(=O)COCCOCCNC(=O)CN2CCN(CC(=O)O)CCN(CC(=O)O)CCN(CC(=O)O)CC2)CSSC[C@@H](C(N)=O)NC(=O)[C@H](CC(C)C)NC1=O [UPAR-229, DOTA-O2Oc-Leu-[Cys-Cit-Gln-Tyr-Phe-Pro-Pro-Ile-Leu-Cys]-NHz] ({DOTA-AEEA}-LC[Cit]QYFPPILC-NH2; disulfide 2-11)
≥ 8.00 | 86 | CCCCC(=O)N[C@H]1CSSC[C@@H](C(N)=O)NC(=O)[C@H](CCC)NC(=O)[C@H]([C@@H](C)CC)NC(=O)[C@@H]2C[C@@H](O)CN2C(=O)[C@@H]2CCCN2C(=O)[C@H](Cc2ccccc2)NC(=O)[C@H](Cc2ccc(O)cc2)NC(=O)[C@H](CCCCNC(=O)CN2CCN(CC(=O)O)CCN(CC(=O)O)CCN(CC(=O)O)CC2)NC(=O)[C@H](CCCNC(N)=O)NC1=O [UPAR-261, Pent-[Cys-Cit-Lys(DOTA)-Tyr-Phe-Pro-Hyp-Ile-Nva-Cys]-NH2] (Pentanoyl-C[Cit]K(DOTA)YFP[Hyp]I[Nva]C-NH2; disulfide 1-10)
≥ 8.00 | > 95 | CC[C@H](C)[C@@H]1NC(=O)[C@@H]2CCCN2C(=O)[C@@H]2CCCN2C(=O)[C@H](Cc2ccccc2)NC(=O)[C@H](Cc2ccc(O)cc2)NC(=O)[C@H](CCCCNC(=O)CN2CCN(CC(=O)O)CCN(CC(=O)O)CCN(CC(=O)O)CC2)NC(=O)[C@H](CCCNC(N)=O)NC(=O)[C@@H](NC(=O)CCC(C)C)CSSC[C@@H](C(N)=O)NC(=O)[C@H](CC(C)C)NC1=O [UPAR-382, iHex-[Cys-Cit-Lys(DOTA)-Tyr-Phe-Pro-Pro-Ile-Leu-Cys]-NHz] ({Pentanoyl(4-Me)}-C[Cit]K(DOTA)YFPPILC-NH2; disulfide 1-10)
≥ 8.00 | > 95 | CC[C@H](C)[C@@H]1NC(=O)[C@@H]2C[C@@H](NC(=O)CN3CCN(CC(=O)O)CCN(CC(=O)O)CCN(CC(=O)O)CC3)CN2C(=O)[C@@H]2CCCN2C(=O)[C@H](Cc2ccccc2)NC(=O)[C@H](Cc2ccc(O)cc2)NC(=O)[C@H](CCC(N)=O)NC(=O)[C@H](CCCNC(N)=O)NC(=O)[C@@H](NC(=O)CCC(C)C)CSSC[C@@H](C(N)=O)NC(=O)[C@H](CC(C)C)NC1=O [UPAR-389, iHex-[Cys-Cit-Gln-Tyr-Phe-Pro-Tap(DOTA)-Ile-Leu-Cys]-NH2] ({Pentanoyl(4-Me)}-C[Cit]QYFP[Pro(trans-4-NH2)](DOTA)ILC-NH2; disulfide 1-10)

The remaining lines, values behind:

SMILES | pIC50 [1] | remaining at 24 h, 10 µM [2] [%]
CCCCC(=O)N[C@H]1CSSC[C@@H](C(N)=O)NC(=O)[C@H](CCC)NC(=O)[C@H]([C@@H](C)CC)NC(=O)[C@@H]2C[C@@H](O)CN2C(=O)[C@@H]2CCCN2C(=O)[C@H](Cc2ccccc2)NC(=O)[C@H](Cc2cccnc2)NC(=O)[C@H](CCCCNC(=O)CN2CCN(CC(=O)O)CCN(CC(=O)O)CCN(CC(=O)O)CC2)NC(=O)[C@H](CCCNC(N)=O)NC1=O [UPAR-138, Pent-[Cys-Cit-Lys(DOTA)-Mpa-Phe-Pro-Hyp-Ile-Nva-Cys]-NH2] (Pentanoyl-C[Cit]K(DOTA)[3Pal]FP[Hyp]I[Nva]C-NH2; disulfide 1-10) | ≥ 8.00 | 94
CC[C@H](C)[C@@H]1NC(=O)[C@@H]2C[C@@H](O)CN2C(=O)[C@@H]2CCCN2C(=O)[C@H](Cc2ccccc2)NC(=O)[C@H](Cc2ccc(O)cc2)NC(=O)[C@H](CCC(N)=O)NC(=O)[C@H](CCCNC(N)=O)NC(=O)[C@@H](NC(=O)CCC(C)C)CSSC[C@@H](C(N)=O)NC(=O)[C@H](CC(C)C)NC1=O [UPAR-174, iHex-[Cys-Cit-Gln-Tyr-Phe-Pro-Hyp-Ile-Leu-Cys]-NH2] ({Pentanoyl(4-Me)}-C[Cit]QYFP[Hyp]ILC-NH2; disulfide 1-10) | ≥ 8.00 | 90
CC[C@H](C)[C@@H]1NC(=O)[C@@H](C)NC(=O)[C@@H]2CCCN2C(=O)[C@H](Cc2ccccc2)NC(=O)[C@H](Cc2ccc(O)cc2)NC(=O)[C@H](CCC(N)=O)NC(=O)[C@H](CCCNC(N)=O)NC(=O)[C@@H](NC(=O)[C@H](CC(C)C)NC(=O)COCCOCCNC(=O)CN2CCN(CC(=O)O)CCN(CC(=O)O)CCN(CC(=O)O)CC2)CSSC[C@@H](C(N)=O)NC(=O)[C@H](CC(C)C)NC1=O [UPAR-245, DOTA-O2Oc-Leu-[Cys-Cit-Gln-Tyr-Phe-Pro-ala-Ile-Leu-Cys]-NH2] ({DOTA-AEEA}-LC[Cit]QYFP[dA]ILC-NH2; disulfide 2-11) | ≥ 8.00 | 72
CCCCOC(=O)N[C@H]1CSSC[C@@H](C(N)=O)NC(=O)[C@H](CCC)NC(=O)[C@H]([C@@H](C)CC)NC(=O)[C@@H]2C[C@@H](O)CN2C(=O)[C@@H]2C[C@H](F)CN2C(=O)[C@H](Cc2ccccc2)NC(=O)[C@H](Cc2ccc(C(N)=O)cc2)NC(=O)[C@H](CCCNC(=O)CN2CCN(CC(=O)O)CCN(CC(=O)O)CCN(CC(=O)O)CC2)NC(=O)[C@H]([C@@H](C)O)NC1=O [UPAR-276, Butoc-[Cys-Thr-Orn(DOTA)-Pcnf-Phe-4Cfp-Hyp-Ile-Nva-Cys]-NHz] (Butoxycarbonyl-CT[Orn](DOTA)[Phe(4-CONH2)]F[Pro(cis-4-F)][Hyp]I[Nva]C-NH2; disulfide 1-10) | ≥ 8.00 | 88
CCC[C@H](NC(=O)CCC(=O)O)C(=O)N[C@H]1CSSC[C@@H](C(N)=O)NC(=O)[C@H](CCC)NC(=O)[C@H]([C@@H](C)CC)NC(=O)[C@@H]2C[C@@H](O)CN2C(=O)[C@@H]2CCCN2C(=O)[C@H](Cc2ccccc2)NC(=O)[C@H](Cc2ccc(O)cc2)NC(=O)[C@H](CCCCNC(=O)CN2CCN(CC(=O)O)CCN(CC(=O)O)CCN(CC(=O)O)CC2)NC(=O)[C@H](CCCNC(N)=O)NC1=O [UPAR-293, HO-Succinyl-Nva-[Cys-Cit-Lys(DOTA)-Tyr-Phe-Pro-Hyp-Ile-Nva-Cys]-NH2] (Suc-[Nva]C[Cit]K(DOTA)YFP[Hyp]I[Nva]C-NH2; disulfide 2-11) | ≥ 8.00 | > 95
CC[C@H](C)[C@@H]1NC(=O)[C@@H](CCCNC(=N)N)NC(=O)[C@@H]2CCCN2C(=O)[C@H](Cc2ccccc2)NC(=O)[C@H](Cc2ccc(O)cc2)NC(=O)[C@H](CCCCNC(=O)CN2CCN(CC(=O)O)CCN(CC(=O)O)CCN(CC(=O)O)CC2)NC(=O)[C@H](CCCNC(N)=O)NC(=O)[C@@H](NC(=O)[C@H](CC(C)C)NC(=O)[C@H](CC(=O)O)NC(C)=O)CSSC[C@@H](C(N)=O)NC(=O)[C@H](CC(C)C)NC1=O [UPAR-306, Ac-Asp-Leu-[Cys-Cit-Lys(DOTA)-Tyr-Phe-Pro-arg-Ile-Leu-Cys]-NH2] (Ac-DLC[Cit]K(DOTA)YFP[dR]ILC-NH2; disulfide 3-12) | ≥ 8.00 | 88
CC[C@H](C)[C@@H]1NC(=O)[C@@H](C)NC(=O)[C@@H]2CCCN2C(=O)[C@H](Cc2ccccc2)NC(=O)[C@H](Cc2ccc(O)cc2)NC(=O)[C@H](CCC(N)=O)NC(=O)[C@H](CCCNC(N)=O)NC(=O)[C@@H](NC(=O)CCC(C)C)CSSC[C@@H](C(N)=O)NC(=O)[C@H](CC(C)C)NC1=O [UPAR-338, iHex-[Cys-Cit-Gln-Tyr-Phe-Pro-ala-Ile-Leu-Cys]-NH2] ({Pentanoyl(4-Me)}-C[Cit]QYFP[dA]ILC-NH2; disulfide 1-10) | ≥ 8.00 | 70
CCCCC(=O)N[C@H]1CSSC[C@@H](C(N)=O)NC(=O)[C@H](CCC)NC(=O)[C@H]([C@@H](C)CC)NC(=O)[C@@H]2C[C@@H](O)CN2C(=O)[C@@H]2C[C@@H](O)CN2C(=O)[C@H](Cc2ccccc2)NC(=O)[C@H](Cc2ccc(O)cc2)NC(=O)[C@H](CCCCNC(=O)CN2CCN(CC(=O)O)CCN(CC(=O)O)CCN(CC(=O)O)CC2)NC(=O)[C@H](CCCNC(N)=O)NC1=O [UPAR-403, Pent-[Cys-Cit-Lys(DOTA)-Tyr-Phe-Hyp-Hyp-Ile-Nva-Cys]-NH2] (Pentanoyl-C[Cit]K(DOTA)YF[Hyp][Hyp]I[Nva]C-NH2; disulfide 1-10) | ≥ 8.00 | 95

— patent EP4610269A1, “UROKINASE PLASMINOGEN ACTIVATOR SURFACE RECEPTOR (UPAR) LIGANDS FOR DIAGNOSTIC OR THERAPEUTIC USE” (3B Pharmaceuticals GmbH, priority 2024, dated 2025)
